The values that follow come from patent US20060205756A1, “Antitussives” (Kyowa Hakko Kogyo Co., Ltd., priority 2003, published 2006).

The assay has as its system citric acid-induced cough. As to the kind of experiment: Citric acid-induced cough model of guinea pig. The settings on record: for Numbers of the cough reflex by inhalation of citric acid: 1 hour before citric acid inhalation (0.5 mol/L, 2 min), coughs counted during 15 minutes, mean ± standard error; for Suppression of cough reflex as compared with the solvent group: Student's t-test versus solvent-administered group. It is filed as in vivo. From the text: Antitussive activity is able to be evaluated by suppression of the cough induced by inhalation of a substance such as citric acid, capsaicin, etc. It is also possible to evaluate antitussive activity by suppression of the cough induced by a direct infusion of citric acid or capsaicin into airway [Nippon Yakurigaku Zasshi, volume 120, page 237 (2002)]. It is further possible to evaluate antitussive activity by suppression of the cough by a physical stimulation, for example, contact stimulation of throat or airway [Eur. J. Phazmacol., volume 329, page 93 (1997)].
Evaluation Using the Citric Acid-Induced Cough Model of Guinea Pig
Guinea pigs (Hartley strain; male; six weeks age; Nippon SLC) were used for the test. Induction of cough reflex by citric acid was conducted in a similar manner to the method by Hosoe, et al. [Yakuri to Rinsho, volume 5, page 2147 (1995)]. Thus, the guinea pig was fixed in a double chamber plethysmograph box (manufactured by Buxco Electronics) for guinea pigs and ventilation was conducted at about 1.6 L/minute. A physiological saline containing 0.5 mol/L of citric acid (manufactured by Wako Pure Chemical) was sprayed for 2 minutes from the upper part of the box of the head side using an ultrasonic nebulizer (NE-U12 manufactured by Omron) and discharged from the side drain. The cough reflex was measured by the generated cough sound and the respiration waveform. Numbers of coughs generated during 15 minutes from initiation of inhalation of citric acid were counted. Compound 1, Compound 2 and codeine phosphate (manufactured by Shionogi) each was suspended in 0.5 w/v % methyl cellulose 400 cP (manufactured by Wako Pure Chemical) and orally administered 1 hour before the initiation of the inhalation of citric acid. Incidentally, with regard to the Compound 1 and Compound 2, each 2, mg thereof was suspended in 1 mL of 0.5 w/v % methyl cellulose 400 cP while, with regard to codeine phosphate, 4 mg thereof was suspended in 1 mL of 0.5 w/v % methyl cellulose 400 cP and the suspension was administered at 5 mL per kg body weight. Numbers of the cough reflex by inhalation of citric acid in the group administered with the solvent were 7.9±1.8, while those in the group administered with 10 mg/kg of Compound 1 were 2.0±1.0. In this test, seven guinea pigs were used for the group administered with the solvent and for the group administered with Compound 1, respectively. Numbers of the cough reflex were expressed as the mean value ±standard error. […] Numbers of the cough reflex by inhalation of citric acid in the group administered with 10 mg/kg of Compound 2 were 4.3±1.0, while those in the group administered with the solvent were 10.3±1.8. In this test, twelve guinea pigs were used for the group administered with the solvent and for the group administered with Compound 2, respectively. Numbers of the cough reflex were expressed as the mean value±standard error. […] Numbers of the cough reflex in the group administered with 20 mg/kg of codeine phosphate which is a central antitussive were 1.8±0.5, while those in the group administered with the solvent were 6.8±1.4. In this test, six guinea pigs were used for the group administered with the solvent and for the group administered with codeine phosphate. Numbers of the cough reflex were expressed as the mean value±standard error.

Regarding `C[C@](O)(C(=O)Nc1cccc2c1C(=O)c1sccc1CS2(=O)=O)C(F)(F)F` [Compound 1], under “10 mg/kg oral”, the “Numbers of the cough reflex by inhalation of citric acid” value (shortened to “Numbers of the cough reflex”) stood at 2.0±1.0 and the “Suppression of cough reflex as compared with the solvent group” value was “significant suppressive response”. For `CC(C)(O)C(=O)Nc1cccc2c1C(=O)c1sccc1CS2(=O)=O` [Compound 2], where the note is “10 mg/kg oral”, the “Numbers of the cough reflex” value came out at 4.3±1.0 and the “Suppression of cough reflex as compared with the solvent group” value was “significant suppressive response”. On to `COc1ccc2c3c1O[C@H]1[C@@H](O)C=C[C@H]4[C@@H](C2)N(C)CC[C@@]341` [codeine phosphate, reference compound], for which the “Numbers of the cough reflex” value (20 mg/kg oral) amounted to 1.8±0.5.
